Experimental data from US20140323477A1, “SERINE/THREONINE KINASE INHIBITORS” (Genentech, Inc., priority 2013, published 2014).

Each compound was assayed against T1, human recombinant PAK1-KD protein (Homo sapiens, UniProt Q13153) (assay: PAK1-KD (kinase domain) IC50 Zlyte assay). Details: Z′-LYTE FRET peptide substrate (Ser/Thr19), 20 pM PAK1-KD, 60-minute incubation at 22° C.
T1 construct: made in house; host or cells: Tini cells (insect cells) infected with recombinant baculovirus
T1 sequence (Q13153 270-521 limits assumed): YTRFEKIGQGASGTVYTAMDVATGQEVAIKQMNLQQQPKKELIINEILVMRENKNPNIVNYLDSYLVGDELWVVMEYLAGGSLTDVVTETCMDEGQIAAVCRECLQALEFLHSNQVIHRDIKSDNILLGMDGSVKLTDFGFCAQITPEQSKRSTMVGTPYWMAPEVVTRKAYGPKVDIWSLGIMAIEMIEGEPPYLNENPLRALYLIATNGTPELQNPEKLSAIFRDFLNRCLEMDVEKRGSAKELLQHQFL
Type: biochemical
Text: PAK1-KD (Kinase Domain) IC50 Zlyte Assay Protocol
Activity of human recombinant PAK1-KD protein may be assessed in vitro by assay of the phosphorylation of a FRET peptide substrate. Catalytically active human recombinant PAK1-KD protein is obtained by purification from Tini cells infected with a human PAK1-KD recombinant baculovirus expression vector.
The activity/inhibition of PAK1-KD was estimated by measuring the phosphorylation of a FRET peptide substrate (Ser/Thr19) labeled with coumarin and fluorescein using Z′-LYTE™ assay (Invitrogen). The peptide substrate is a consensus sequence (KKRNRRLSVA) based on various PAK substrates reported in the scientific literature. The 10 μL assay mixtures contained 50 mM HEPES (pH 7.5), 0.01% Brij-35, 10 mM MgCl2, 1 mM EGTA, 2 μM FRET peptide substrate, and 20 pM PAK1-KD. Incubations were carried out at 22° C. in black polypropylene 384-well plates (Corning Costar). […] Following the 60-minute incubation, the assay mixtures were quenched by the addition of 5 μL of Z′-LYTETm development reagent, and 1 hour later the emissions of Coumarin (445 nm) and Fluorescein (520 nm) were determined after excitation at 400 nm using an Envision plate reader (Perkin Elmer). An emission ratio (445 nm/520 nm) was determined to quantify the degree of substrate phosphorylation.
For CCn1c(=O)c(-c2cccc(S(=O)(=O)N(C)C)c2)cc2cnc(NCCC3CCN(C)CC3)nc21 [Compound I-1, 3-[8-ethyl-2-[2-(1-methyl-4-piperidyl)ethylamino]-7-oxo-pyrido[2,3-d]pyrimidin-6-yl]-N,N-dimethyl-benzenesulfonamide], the IC50 was 182 nM. For CCNS(=O)(=O)c1ccc(-c2cc3cnc(NCCC4CCN(C)CC4)nc3n(CC)c2=O)c(C)c1 [Compound I-2, N-ethyl-4-[8-ethyl-2-[2-(1-methyl-4-piperidyl)ethylamino]-7-oxo-pyrido[2,3-d]pyrimidin-6-yl]-3-methyl-benzenesulfonamide], the IC50 was 133 nM. Compound CCn1c(=O)c(-c2ccc(S(=O)(=O)N(C)C)cc2C)cc2cnc(NCCC3CCN(C)CC3)nc21 [Compound I-3, 4-[8-ethyl-2-[2-(1-methyl-4-piperidyl)ethylamino]-7-oxo-pyrido[2,3-d]pyrimidin-6-yl]-N,N,3-trimethyl-benzenesulfonamide] has an IC50 of 1320 nM. CCn1c(=O)c(-c2ccc(S(=O)(=O)N3CCOCC3)cc2C)cc2cnc(NCCC3CCN(C)CC3)nc21 [Compound I-4, 8-ethyl-6-(2-methyl-4-morpholinosulfonyl-phenyl)-2-[2-(1-methyl-4-piperidyl)ethylamino]pyrido[2,3-d]pyrimidin-7-one] gave an IC50 of 751 nM. In the case of CCn1c(=O)c(-c2ccc(S(=O)(=O)N3CCCC3)cc2C)cc2cnc(NCCC3CCN(C)CC3)nc21 [Compound I-5, 8-ethyl-2-[2-(1-methyl-4-piperidyl)ethylamino]-6-(2-methyl-4-pyrrolidin-1-ylsulfonyl-phenyl)pyrido[2,3-d]pyrimidin-7-one], the IC50 is reported as 460 nM. CCn1c(=O)c(-c2ccc(S(=O)(=O)NC3CC3)cc2C)cc2cnc(NCCC3CCN(C)CC3)nc21 [Compound I-6, N-cyclopropyl-4-[8-ethyl-2-[2-(1-methyl-4-piperidyl)ethylamino]-7-oxo-pyrido[2,3-d]pyrimidin-6-yl]-3-methyl-benzenesulfonamide] was tested, and the IC50 was 77.1 nM. CCn1c(=O)c(-c2ccc(S(=O)(=O)NC)cc2C)cc2cnc(NCCC3CCN(C)CC3)nc21 [Compound I-7, 4-[8-ethyl-2-[2-(1-methyl-4-piperidyl)ethylamino]-7-oxo-pyrido[2,3-d]pyrimidin-6-yl]-N,3-dimethyl-benzenesulfonamide] showed an IC50 of 582 nM. CCNS(=O)(=O)c1ccc(-c2cc3cnc(NCCC4CCN(C)CC4)nc3n(CC)c2=O)c(Cl)c1 [Compound I-8, 3-chloro-N-ethyl-4-[8-ethyl-2-[2-(1-methyl-4-piperidyl)ethylamino]-7-oxo-pyrido[2,3-d]pyrimidin-6-yl]benzenesulfonamide] gave an IC50 of 22.3 nM. CCNc1ncc2cc(-c3ccc(S(=O)(=O)NCC)cc3Cl)c(=O)n(CC)c2n1 [Compound I-9, 3-chloro-N-ethyl-4-[8-ethyl-2-(ethylamino)-7-oxo-pyrido[2,3-d]pyrimidin-6-yl]benzenesulfonamide] showed an IC50 of 131 nM. CNS(=O)(=O)c1ccc(-c2cc3cnc(NCCC4CCN(C)CC4)nc3n(C)c2=O)c(Cl)c1 [Compound I-10, 3-chloro-N-methyl-4-[8-methyl-2-[2-(1-methyl-4-piperidyl)ethylamino]-7-oxo-pyrido[2,3-d]pyrimidin-6-yl]benzenesulfonamide] showed an IC50 of 820 nM. Compound CCNc1ncc2cc(-c3ccc(S(=O)(=O)NC)cc3Cl)c(=O)n(C)c2n1 [Compound I-11, 3-chloro-4-[2-(ethylamino)-8-methyl-7-oxo-pyrido[2,3-d]pyrimidin-6-yl]-N-methyl-benzenesulfonamide] has an IC50 of 1600 nM. CCNc1ncc2cc(-c3ccc(S(=O)(=O)NC(C)C)cc3Cl)c(=O)n(C)c2n1 [Compound I-12, 3-chloro-4-[2-(ethylamino)-8-methyl-7-oxo-pyrido[2,3-d]pyrimidin-6-yl]-N-isopropyl-benzenesulfonamide] was tested, and the IC50 was 177 nM. CC(C)NS(=O)(=O)c1ccc(-c2cc3cnc(NCCC4CCN(C)CC4)nc3n(C)c2=O)c(Cl)c1 [Compound I-13, 3-chloro-N-isopropyl-4-[8-methyl-2-[2-(1-methyl-4-piperidyl)ethylamino]-7-oxo-pyrido[2,3-d]pyrimidin-6-yl]benzenesulfonamide] showed an IC50 of 80.4 nM. Work on CCn1c(=O)c(-c2cc(S(=O)(=O)N(C)C)ccc2Cl)cc2cnc(NCCC3CCN(C)CC3)nc21 [Compound I-14, 4-chloro-3-[8-ethyl-2-[2-(1-methyl-4-piperidyl)ethylamino]-7-oxo-pyrido[2,3-d]pyrimidin-6-yl]-N,N-dimethyl-benzenesulfonamide] yielded an IC50 of 310 nM.
